Results published in patent US20150105252A1, “SUBSTITUTED PYRAZOLES AS HERBICIDES” (E I DU PONT DE NEMOURS AND COMPANY, priority 2013, published 2015).

Assays:
lambsquarters [1] = experiment: Test C postemergence; type: in vivo, Chenopodium album; settings: for Plant response rating (scale of 0 to 100 where 0 is no effect and 100 is complete control), Lambsquarters: Postemergence, 31 g ai/ha, visually evaluated after 13 to 15 days; for Lambsquarters plant response rating / Plant response rating, Lambsquarters: postemergence; for Lambsquarters plant response rating: 62 g ai/ha, scale 0 to 100
Procedure, shortened: (§1)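 Postemergence values come from plants sprayed at the 1- to 4-leaf stage (2–18 cm) in peat moss–vermiculite medium; preemergence values from seeds treated in a loam–sand blend. Both evaluated visually against controls after 13–15 greenhouse days, scale 0–100.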

pigweed = experiment: Test A preemergence; type: in vivo, Amaranthus retroflexus; settings: preemergence; for Pigweed plant response rating (0 to 100 scale): 125 g ai/ha, visual injury approx. 10 days after treatment; for Pigweed plant response rating: 500 g ai/ha, visual injury after approx. 10 days, 0 to 100 scale (0 no effect, 100 complete control)
Procedure, shortened: (§2)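 Seeds were sown in a loam soil–sand blend and given a directed soil spray preemergence; postemergence plants at 2–10 cm, one- to two-leaf stage, were sprayed with compound in non-phytotoxic solvent with surfactant. After about 10 days in a greenhouse, injury was visually rated against untreated controls (0 = no effect, 100 = complete control).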

corn = experiment: Test A postemergence; type: in vivo, Zea mays
Procedure, shortened: as §2

wheat [2] = experiment: Test C preemergence; type: in vivo, Triticum aestivum; settings: preemergence; for Plant response rating, Wheat: 125 g ai/ha, scale 0 to 100, 0 = no effect, 100 = complete control
Procedure, shortened: as §1

crabgrass, large [3] = experiment: Test A postemergence; type: in vivo, Digitaria sanguinalis
Procedure, shortened: as §2

wheat [4] = experiment: Test A postemergence; type: in vivo, Triticum aestivum; settings: Postemergence
Procedure, shortened: as §2

crabgrass, large [5] = experiment: Test A preemergence; type: in vivo, Digitaria sanguinalis; settings: preemergence; for Crabgrass, Large plant response rating (0 to 100 scale): 125 g ai/ha, visual injury approx. 10 days after treatment; for Crabgrass, Large plant response rating: 500 g ai/ha, visual injury after approx. 10 days, 0 to 100 scale (0 no effect, 100 complete control)
Procedure, shortened: as §2

barnyardgrass = experiment: Test C postemergence; type: in vivo, Echinochloa crus-galli; settings: for Plant response rating (scale of 0 to 100 where 0 is no effect and 100 is complete control), Barnyardgrass: Postemergence, 31 g ai/ha, visually evaluated after 13 to 15 days; for Barnyardgrass plant response rating / Plant response rating, Barnyardgrass: postemergence; for Barnyardgrass plant response rating: 62 g ai/ha, scale 0 to 100
Procedure, shortened: as §1

galium = experiment: Test C preemergence; type: in vivo, Galium aparine; settings: preemergence; for Plant response rating, Galium: 125 g ai/ha, scale 0 to 100, 0 = no effect, 100 = complete control
Procedure, shortened: as §1

rice = experiment: Test B flood; type: in vivo, Oryza sativa; settings: 250 g ai/ha, visual rating on 0 to 100 scale (0 no effect, 100 complete control), 13 to 15 days
Procedure, shortened: (§3)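 Paddy-water application: seedlings at 2-leaf stage, flood depth 3 cm maintained for the test duration. Evaluation after 13–15 days in the greenhouse by eye relative to controls; 0–100 scale.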

wheat [6] = experiment: Test C postemergence; type: in vivo, Triticum aestivum; settings: postemergence, 250 g ai/ha; scale 0 to 100 (0 no effect, 100 complete control)
Procedure, shortened: as §1

lambsquarters [7] = experiment: Test C preemergence; type: in vivo, Chenopodium album; settings: preemergence; for Plant response rating, Lambsquarters: 125 g ai/ha, scale 0 to 100, 0 = no effect, 100 = complete control
Procedure, shortened: as §1

ducksalad = experiment: Test B flood; type: in vivo, Heteranthera limosa; settings: 250 g ai/ha, visual rating on 0 to 100 scale (0 no effect, 100 complete control), 13 to 15 days
Procedure, shortened: as §3

waterhemp = experiment: Test C preemergence; type: in vivo, Amaranthus rudis; settings: preemergence; for Plant response rating, Waterhemp: 125 g ai/ha, scale 0 to 100, 0 = no effect, 100 = complete control
Procedure, shortened: as §1

[8] = 250 g ai/ha, scale 0 to 100 (0 no effect, 100 complete control)
[9] = 125 g ai/ha, scale 0 to 100, 0 no effect, 100 complete control
[10] = Postemergence, 500 g ai/ha, 0 to 100 scale (0 no effect, 100 complete control)
[11] = postemergence, 125 g ai/ha, about 10 days, visual rating on 0 to 100 scale (0 no effect, 100 complete control)
[12] = 31 g ai/ha, visual rating, scale 0 to 100 (0 no effect, 100 complete control), 13 to 15 days
[13] = 62 g ai/ha, scale 0 to 100 (0 no effect, 100 complete control), 13 to 15 days
[14] = 250 g ai/ha, scale 0 to 100, 0 is no effect, 100 is complete control
[15] = 125 g ai/ha, 0 to 100 scale, 0 no effect, 100 complete control
[16] = 500 g ai/ha, 0 to 100 scale (0 no effect, 100 complete control)

Compound | Plant response rating (scale of 0 to 100 where 0 is no effect and 100 is complete control), Lambsquarters (lambsquarters [1]) | Lambsquarters plant response rating (lambsquarters [1]) | Plant response rating, Lambsquarters (lambsquarters [1]; [8]) | Plant response rating, Lambsquarters (lambsquarters [1]; [9]) | Pigweed plant response rating (0 to 100 scale) (pigweed) | Pigweed plant response rating (pigweed) | Corn plant response rating (corn; [10]) | Corn plant response rating (corn; [11]) | Wheat plant response rating (wheat [2]; [12]) | Wheat plant response rating (wheat [2]; [13]) | Plant response rating, Wheat (wheat [2]; 13 to 15 days) | Wheat plant response rating (wheat [2]; [14]) | Crabgrass, Large plant response rating (crabgrass, large [3]; [10]) | Crabgrass, Large plant response rating (crabgrass, large [3]; [11]) | Wheat plant response rating (wheat [4]; [15]) | Wheat plant response rating (wheat [4]; [16]) | Crabgrass, Large plant response rating (0 to 100 scale) (crabgrass, large [5]) | Crabgrass, Large plant response rating (crabgrass, large [5]) | Plant response rating (scale of 0 to 100 where 0 is no effect and 100 is complete control), Barnyardgrass (barnyardgrass) | Barnyardgrass plant response rating (barnyardgrass) | further results
CCOc1cc(C(=O)NC2CC2)nn1Cc1ccnc(C(F)(F)F)c1 [Compound 189] | 60 | 70 | 85 | 95 | 0 | 0 | 100 | 80 | 40 | 80 | 90 | 90 | 90 | 90 | 80 | 90 | 100 | 100 | 5 | 5 | Plant response rating, Barnyardgrass (barnyardgrass; [8]): 55; Plant response rating, Barnyardgrass (barnyardgrass; [9]): 20; Galium plant response rating (galium; [12]): 90; Galium plant response rating (galium; [13]): 95; Plant response rating, Galium (galium; 13 to 15 days): 100; Galium plant response rating (galium; [14]): 100; Plant response rating, Rice (rice): 45; Plant response rating, Wheat (wheat [6]): 15; Lambsquarters plant response rating (lambsquarters [7]; [12]): 98; Lambsquarters plant response rating (lambsquarters [7]; [13]): 100; Plant response rating, Lambsquarters (lambsquarters [7]; 13 to 15 days): 100; Lambsquarters plant response rating (lambsquarters [7]; [14]): 100; Plant response rating, Ducksalad (ducksalad): 85; Waterhemp plant response rating (waterhemp; [12]): 100; Waterhemp plant response rating (waterhemp; [13]): 100; Plant response rating, Waterhemp (waterhemp; 13 to 15 days): 100; Waterhemp plant response rating (waterhemp; [14]): 100
CCc1cc(C(=O)NCC2CC2)nn1Cc1ccnc(C(F)(F)F)c1 [Compound 199] | 25 | 85 | 95 | 70 | 100 | 100 | 90 | 50 | 60 | 85 | 90 | 90 | 90 | 90 | 70 | 80 | 100 | 100 | 10 | 10 | Plant response rating, Barnyardgrass (barnyardgrass; [8]): 45; Plant response rating, Barnyardgrass (barnyardgrass; [9]): 30; Galium plant response rating (galium; [12]): 40; Galium plant response rating (galium; [13]): 100; Plant response rating, Galium (galium; 13 to 15 days): 100; Galium plant response rating (galium; [14]): 100; Plant response rating, Rice (rice): 45; Plant response rating, Wheat (wheat [6]): 5; Lambsquarters plant response rating (lambsquarters [7]; [12]): 95; Lambsquarters plant response rating (lambsquarters [7]; [13]): 100; Plant response rating, Lambsquarters (lambsquarters [7]; 13 to 15 days): 100; Lambsquarters plant response rating (lambsquarters [7]; [14]): 98; Plant response rating, Ducksalad (ducksalad): 90; Waterhemp plant response rating (waterhemp; [12]): 98; Waterhemp plant response rating (waterhemp; [13]): 100; Plant response rating, Waterhemp (waterhemp; 13 to 15 days): 100; Waterhemp plant response rating (waterhemp; [14]): 100
CCc1cc(C(=O)NC2CC2)nn1Cc1ccnc(OCC(F)(F)F)c1 [Compound 200] | 55 | 65 | 95 | 65 | 100 | 100 | 100 | 80 | 0 | 15 | 45 | 75 | 100 | 100 | 40 | 100 | 100 | 100 | 0 | 5 | Plant response rating, Barnyardgrass (barnyardgrass; [8]): 10; Plant response rating, Barnyardgrass (barnyardgrass; [9]): 5; Galium plant response rating (galium; [12]): 85; Galium plant response rating (galium; [13]): 100; Plant response rating, Galium (galium; 13 to 15 days): 100; Galium plant response rating (galium; [14]): 100; Plant response rating, Rice (rice): 0; Plant response rating, Wheat (wheat [6]): 10; Lambsquarters plant response rating (lambsquarters [7]; [12]): 75; Lambsquarters plant response rating (lambsquarters [7]; [13]): 100; Plant response rating, Lambsquarters (lambsquarters [7]; 13 to 15 days): 100; Lambsquarters plant response rating (lambsquarters [7]; [14]): 100; Plant response rating, Ducksalad (ducksalad): 80; Waterhemp plant response rating (waterhemp; [12]): 100; Waterhemp plant response rating (waterhemp; [13]): 100; Plant response rating, Waterhemp (waterhemp; 13 to 15 days): 100; Waterhemp plant response rating (waterhemp; [14]): 100
